We go through two compounds from paper PMC8065974 (Biomedicines, 2021).

Where two headings read alike, the source gives them in different places.

Common to all, as to type: in vivo, mice (C57BL/6J)
Series [1] deals with unilateral ureteral obstruction (UUO) mouse model. Description: Curative treatment in UUO-induced tubulointerstitial fibrosis: immunohistochemistry and Sirius red histology. As to conditions: curative: 25 mg/kg daily gavage from day 3 after UUO for 5 days; vs UUO + vehicle; n = 7. As to the method:
The unilateral ureteral ligation was performed as previously described. Briefly, under oxygen-isoflurane anesthesia and through a longitudinal, left abdominal incision, the ureter was exposed and ligated with a 6/0 nylon thread at the uretero-pelvic junction. In sham operations, the ureter was exposed but not ligated and repositioned. To reduce pain Buprenorphine (0.01 mg/kg) (Buprecare […], France) was injected i.p before surgery and 12 h later. […] A. borbonica polyphenol extract (25 mg/kg) or CA (25 mg/kg) were resuspended in distilled water just before gavage. The control group received only the vehicle (distilled water). At the end of the different protocols, mice were sacrificed and the kidneys were removed, and a transverse section was fixed in Carnoy's solution for 24 h and subsequently embedded in paraffin for immuno-histological analysis. Several pieces of renal cortex were snap-frozen in liquid nitrogen and stored at -80 °C for mRNA, enzyme activities and MS/MS analysis. Kidneys were fixed in Carnoy's solution, dehydrated and embedded in paraffin. From kidney sections, routine histology and immunohistological staining and analysis were performed as previously described. Three to four μm thickness sections were cut and used for routine staining (hematoxylin-eosin and Sirius red staining) and immunohistochemistry. […] For immunohistochemistry, mouse renal tissue was first de-waxed in toluene and rehydrated through a series of graded ethanol washes before incubation with 3% hydrogen peroxide for 10 min at room temperature to block endogenous peroxidase activity. […] The sections were subsequently stained with the Dako Envision system ([…] (primary antibodies from mouse) and K4002 (primary antibodies from rabbit)) according to manufacturer's instruction. Sections were finally counterstained with hematoxylin. Negative controls for the immunohistochemical procedures included substitution of the primary antibody with nonimmune sera at a similar immunoglobin concentration. […]

Series [2] relates to mRNA of inflammatory, fibrotic and antioxidant genes in obstructed kidney. Put plainly: Curative treatment in UUO: RT-qPCR of obstructed kidney. The conditions noted are these: curative: 25 mg/kg daily gavage from day 3 after UUO for 5 days. As to the method: The unilateral ureteral ligation was performed as previously described. Briefly, under oxygen-isoflurane anesthesia and through a longitudinal, left abdominal incision, the ureter was exposed and ligated with a 6/0 nylon thread at the uretero-pelvic junction. In sham operations, the ureter was exposed but not ligated and repositioned. To reduce pain Buprenorphine (0.01 mg/kg) (Buprecare […], France) was injected i.p before surgery and 12 h later. […] A. borbonica polyphenol extract (25 mg/kg) or CA (25 mg/kg) were resuspended in distilled water just before gavage. The control group received only the vehicle (distilled water). At the end of the different protocols, mice were sacrificed and the kidneys were removed, and a transverse section was fixed in Carnoy's solution for 24 h and subsequently embedded in paraffin for immuno-histological analysis. Several pieces of renal cortex were snap-frozen in liquid nitrogen and stored at -80 °C for mRNA, enzyme activities and MS/MS analysis. Total RNA was isolated from mouse kidneys with TRIzol^TM reagent (Invitrogen). […] The quantitative real-time polymerase chain reaction was performed in a 96 well plate using SYBR green^TM master mix (Eurogentec). Analysis of GAPDH was performed to normalize gene expression and the relative mRNA fold changes between groups were calculated using the 2^-^ΔΔ^Ct method.

For series [3], the system named is Mn-SOD, Cu/Zn-SOD, GPX, CAT activities in obstructed kidney. Description: Curative treatment in UUO: antioxidant enzyme activities in kidney tissue. As to conditions: curative: 25 mg/kg, 5 days; vs UUO + vehicle. As to the method:
After centrifugation (5000× g[…], for 10 min), the supernatant was used for protein quantification and enzymatic assays. The total protein level of lysate was quantified by the bicinchoninic acid assay (BCA). SOD activity was assayed by monitoring the rate of acetylated cytochrome c reduction by superoxide radicals generated by the xanthine/xanthine oxidase system. Measurements were performed in a reagent buffer (xanthine oxidase, xanthine (0.5 mM), cytochrome c (0.2 mM), KH2PO4 (50 mM), EDTA (2 mM), pH 7.8) at 25 °C. The specific MnSOD activities were determined in the same conditions after incubation of samples with NaCN (1 mM) which inhibits Cu/ZnSOD activities. Assays were monitored by spectrophotometry at 560 nm. SOD activities were calculated using a calibration standard curve of SOD (up to 6 unit/mg). Total SOD, MnSOD and resulting Cu/ZnSOD activities were expressed as international catalytic units per mg of proteins. The total activity of glutathione peroxidase (GPX) was determined with cumene hydroperoxide as substrate. The rate of glutathione oxidized by cumene hydroperoxide (6.5 mM) was evaluated by the decrease in NADPH (0.12 mM in Tris buffer) at 340 nm in the presence of NaCN (10 mM), reduced glutathione (0.25 mM) and glutathione reductase (1 U/mL) in Tris buffer (50 mM, pH 8). GPX activity was expressed as international units per gram of proteins. The catalase (CAT) activity assay was carried out on 40 µg of protein lysate in 25 mM Tris–HCl (pH 7.5). Blanks were measured at 240 nm just before adding 80 µL of H2O2 (10 mM final) to start the reaction. Catalase activity was determined by measuring the absorbance at 240 nm and was calculated using a calibration standard curve of an increasing amount of catalase between 12.5 and 125 unit/mL. Catalase activity was expressed as international catalytic units per mg of proteins.

Series [4] concerns protein carbonyl in obstructed kidney. Description: Curative treatment in UUO: protein carbonylation (carbonyl ELISA). The conditions noted are these: curative: 25 mg/kg, 5 days; vs UUO + vehicle. How it is done: The protein carbonylation was determined as described previously by the carbonyl ELISA assay based on the recognition of protein-bound DNPH in carbonylated proteins with an anti-DNP antibody.

A short description of series [5]: Biodistribution of caffeic acid and ferulic acid after A. borbonica extract (UPLC-MS). As to conditions: for concentration at 24 h: C57BL/6J, mouse, oral, 25 mg/kg; for Concentration in urine: urine collected overnight. How it is done: Polyphenolic extract from A. borbonica was prepared by dissolving 1 g of crushed leaves in 25 mL of an aqueous acetonic solution (70%, v/v). After incubation at 4 °C for 90 min, the mixture was centrifuged at 3500× g […] at 4 °C for 20 min and polyphenol-rich supernatant was collected and stored at −80 °C until analysis. Identification of polyphenols was carried out by ultra-high-performance liquid chromatography (UHPLC) coupled with diode array detection and a HESI-Orbitrap mass spectrometer (Q Exactive Plus, Thermo Fisher). A 10 µL sample volume was injected using an UHPLC system equipped with a Thermo Fisher Ultimate 3000 series WPS-3000 RS autosampler and then separated on a PFP column (2.6 μm, 100 mm × 2.1 mm, Phenomenex, Torrance, CA, USA). The column was eluted with a gradient mixture of 0.1% formic acid in water (A) and 0.1% formic acid in acetonitrile (B) at the flow rate of 0.450 mL/min, with 5% B at 0.00 to 0.1 min, 35% B at 0.1 to 7.1 min, 95% B at 7.2 to 7.9 min and 5% B at 8.0 to 10 min. The column temperature was held at 30 °C and the detection wavelengths were set to 280 and 310 nm.
For mass spectrometer conditions, a Heated Electrospray Ionization source II (HESI II) was used. Nitrogen was used as drying gas. The mass spectrometric conditions were optimized as follows: spray voltage = 2.8 kV, capillary temperature = 350 °C, sheath gas flow rate = 60 units, aux gas flow rate = 20 units and S lens RF level = 50. Mass spectra were registered in full scan mode from m/z 100 to 1500 in negative ion mode at a resolving power of 70,000 FWHM at m/z 400. The automatic gain control (AGC) was set at 1e6. The MS/MS spectra were obtained by applying a relatively higher energy collisional dissociation (HCD) energy of 25%.
For biodistribution study, one day before sacrifice animals were placed in metabolic cages to collect urine overnight. CA and its metabolites were measured by UPLC-MS/MS in liver and kidney tissues and urine.

Series [6] in a line: Plasma and kidney pharmacokinetics after a single oral dose of CA in UUO mice. As to conditions: single oral dose of CA 25 mg/kg, 3 days-UUO mice; for Cmax: n = 3/time, read-out: Cmax (peak plasma concentration). How it is done: For pharmacokinetics study, the animals were submitted to UUO and 3 days later they were fasted overnight and then treated with a single dose of CA (25 mg/kg) or vehicle (n = 3/group). Blood samples (90 µL) were collected at time 0 (before treatment), 30 min, 60 min, 180 min and 360 min post-treatment. CA concentrations were measured by UPLC-HESI-Q-orbitrap (Q Exactive Plus).
To this end, three days after UUO, mice were administrated by oral route a unique dose of CA (25 mg/kg) and then were sacrificed at 30, 60, 180 and 360 min.

Series [7] in a line: DESI-HR/MS imaging of obstructed kidney. As to conditions: 1 h post oral administration of CA 25 mg/kg, UUO mice.
Experimental: The 2D automated Omni Spray Kidney tissues were flash-frozen in nitrogen and stored at −80 °C before DESI-HR/MS imaging. For DESI-MS imaging and histology, 12 μm thickness kidney sections were collected and mounted on SuperFrost™ Plus glass slides.
The 2D automated Omni Spray ion source from Prosolia Inc. (Indianapolis, IN, USA) coupled to a Q-Exactive™ Plus mass spectrometer (Thermo Fisher Scientific, Bremen, Germany) was used to perform the mass spectrometry imaging experiment. A solution of methanol with 0.1% formic acid (HPLC-MS grade, Carlo Erba) was used as the extraction and ionization spray solvent, delivered by a syringe pump at a flow rate of 5 μL/min. All imaging experiments were carried out with the following experimental conditions including source parameters: 2.8 kV capillary voltage, 250 °C capillary temperature, 60% S-lens RF level and 86 psi nitrogen nebulizing gas pressure, and including geometrical parameters: ∼1 mm spray tip-to-surface distance and a spray incident angle of 60°. Mass spectra were registered in full scan mode with the mass spectrometer operating in negative mode. Survey full scan mass spectra were acquired in the 50 to 500 m/z range at resolving power 70,000 (at m/z 400) with an automatic gain control (AGC) target of 3^6 and maximum injection time of 200 ms. […]
Setting [8] is: liver, read-out: Concentration in liver.
The mark [9] stands for this setting: UUO mice after ingestion of 25 mg/kg A. borbonica extract (gavage), n = 7, mean ± SD.
Setting [10] is: C57BL/6J, mouse, contralateral kidney, read-out: AUC (0-360) in contralateral kidney (converted).
The mark [11] stands for this setting: C57BL/6J, mouse, contralateral kidney, read-out: concentration in contralateral kidney one hour after CA administration.
[12] abbreviates: C57BL/6J, mouse, obstructed kidney, read-out: AUC (0-360) in obstructed kidney (converted).
[13] abbreviates: C57BL/6J, mouse, obstructed kidney, read-out: concentration in obstructed kidney one hour after CA administration.
[14] abbreviates: C57BL/6J, mouse, plasma, 0 to 360 min, read-out: AUC (0-360) in plasma (converted).

Take `O=C(O)/C=C/c1ccc(O)c(O)c1` [Caffeic acid, caffeic acid]: the “extracellular matrix accumulation / renal tubulointerstitial fibrosis (Sirius red staining)” value in series [1] is given as “significant protective effect”. Moreover, in series [1], the “macrophage infiltration (F4/80 immunostaining)” value is reported as “significant protective effect”. Also, the “myofibroblast appearance/accumulation (α-SMA immunostaining)” value in series [1] is listed as “significant protective effect”. Moreover, the “Nrf2 mRNA expression” value in series [2] is listed as “significant increase”. Also, in series [2] (vs UUO + vehicle), the “UUO-induced mRNA expression of inflammatory and fibrotic genes (Tgf-β, Tnf-α, Nf-κB, Mcp1, Fn, Col I, Col III)” value was “downregulated”. Also, the “CAT enzyme activity in obstructed kidney” value in series [3] is reported as “significantly increased”. In series [3], the “Cu/Zn-SOD enzyme activity in obstructed kidney” value is given as “significantly increased”. In addition, the “GPX enzyme activity in obstructed kidney” value in series [3] was “not significantly different”. Besides, the “UUO-induced increase in protein carbonyl level in obstructed kidney” value in series [4] is reported as “slight decrease in carbonyl level which did not reach statistical significance”. For the same compound, the concentration at 24 h in series [5] (setting [8]) came to 0.037 ± 0.001 µM; in series [5] (obstructed kidney, read-out: Concentration in obstructed kidney), 0.144 ± 0.013 µM. The “Concentration in obstructed kidney” value in series [5] (UUO mice after ingestion of 25 mg/kg A. borbonica extract (gavage), 24 h after administration, n = 7, mean ± SD) stood at 0.144 ± 0.013 µM. For the same compound, the Concentration in urine in series [5] (setting [9]) turned out to be 96.599 ± 19.704 µM; in series [5] (UUO mice after ingestion of 25 mg/kg A. borbonica extract (gavage), n = 7, mean ± SD, listed as CA), 96.599 ± 19.704 µM. For the same compound, the AUC(0-t) in series [6] (setting [10]) is 1.67 µM·h; in series [6] (setting [12]) it was 14.7 µM·h; in series [6] (setting [14]) it was 82.7 µM·h. Also, the concentration at 1 h in series [6] (setting [11]) was found to be 0.3 ± 0.1 µM; in series [6] (setting [13]), 5.3 ± 1.1 µM. Besides, the tmax in series [6] (C57BL/6J, mouse, plasma, po, 25 mg/kg, plasma, read-out: tmax) is no more than 30 min; in series [6] (plasma) it was 30 min. For the same compound, in series [6] (C57BL/6J, mouse, plasma, read-out: Bioavailability F), the bioavailability is 0.4%. The Cmax in series [6] (C57BL/6J, mouse, plasma) amounted to 50.5 µM.

On to `COc1cc(/C=C/C(=O)O)ccc1O` [Ferulic acid, ferulic acid], for which the concentration at 24 h in series [5] (setting [8]) is 0.426 ± 0.099 µM. Further, the Concentration in urine in series [5] (setting [9]) turned out to be 38.002 ± 5.021 µM; in series [5] (UUO mice after ingestion of 25 mg/kg A. borbonica extract (gavage), n = 7, mean ± SD, listed as FA), 38.002 ± 5.021 µM. Moreover, the figures for the AUC(0-t) in series [6] (setting [10]), in series [6] (setting [12]) and in series [6] (setting [14]) were 1.64 µM·h, 17.9 µM·h and 77.5 µM·h, respectively. Moreover, the concentration at 1 h in series [6] (setting [11]) was determined as 0.4 ± 0.1 µM; in series [6] (setting [13]) it was 4.5 ± 0.8 µM. Moreover, the Cmax in series [6] (C57BL/6J, mouse, plasma) came to 68.3 ± 8.3 µM. The tmax entry in series [6] (plasma) is “same tmax as CA”. Also, the “spatial distribution in obstructed kidney (DESI-HR/MS imaging)” value in series [7] is on record as “in the renal cortex”.

As a reminder, the bioavailability is the share of a dose that reaches the circulation, judged against a reference dose that is usually intravenous.
